Data reported in patent publication US6407058B1, “Modifying the permeability of physiological barriers” (Eisai Co., Limited, priority 1996, dated 2002).

What was measured:
p100/p120 [1] = experiment: p100/p120 electrophoretic mobility, MDCK strain II cells; format: cell-based; details: 200 nM PDB, 30 minutes
Protocol: p100 and p120 electrophoretic mobility is affected by PDB in a number of different epithelial cell lines. LLC-PK1, (a porcine kidney cell line), MDCK strain II cells and gut-derived Caco-2 cells were treated with or without 200 nM PDB for 30 minutes, lysed into Laemmli sample buffer, separated by electrophoresis and analysed by immunoblotting.
MDCK strain I and II cells were provided by Barry Gumbiner (memorial Sloan-Kettering Cancer Center, NY). LLC-PK1 and Caco-2 cells were obtained from the European Collection of Animal Cell Cultures. All cells were maintained at 37° C. under 5% CO2 in humidified air. MDCK strain I and II cells were maintained in MEM containing 10% FCS, 100 U/ml penicillin, 100 μg/ml streptomycin and 2 mM L-glutamine. Caco-2 cells were maintained in MEM containing 15% FCS, 1% non-essential amino acids and 1 μg/ml bovine insulin (Sigma I-6634). LLC-PK1 cells were grown in M199 (Gibco), 10% FCS, 100 U/ml penicillin, 100 μg/ml streptomycin and 2 mM L-glutamine. For whole cell lysate analysis, 10^5 cells were plated on 6.5 mm diameter, 0.4 μm, polycarbonate Transwell filters from Costar, in 0.25 ml of medium. The basolateral chamber contained 0.75 ml of medium. For immunoprecipitation, 5×10^5 cells were plated onto 24 mm Transwell filters, in 2 ml of medium, with 3 ml of medium in the lower chamber. Cells were used 4-7 days after plating. […]

p100/p120 [2] = experiment: p100/p120 electrophoretic mobility, primary pig brain endothelial cells (PBECs); format: cell-based; details: PBECs, 200 nM PDB, 30 minutes
Protocol: Cells were treated with or without 200 nM PDB for 30 minutes, lysed into Laemmli sample buffer, separated by electrophoresis and analysed by immunoblotting with antibodies recognising p100 and p120.
MDCK strain I and II cells were provided by Barry Gumbiner (memorial Sloan-Kettering Cancer Center, NY). LLC-PK1 and Caco-2 cells were obtained from the European Collection of Animal Cell Cultures. All cells were maintained at 37° C. under 5% CO2 in humidified air. MDCK strain I and II cells were maintained in MEM containing 10% FCS, 100 U/ml penicillin, 100 μg/ml streptomycin and 2 mM L-glutamine. Caco-2 cells were maintained in MEM containing 15% FCS, 1% non-essential amino acids and 1 μg/ml bovine insulin (Sigma I-6634). LLC-PK1 cells were grown in M199 (Gibco), 10% FCS, 100 U/ml penicillin, 100 μg/ml streptomycin and 2 mM L-glutamine. For whole cell lysate analysis, 10^5 cells were plated on 6.5 mm diameter, 0.4 μm, polycarbonate Transwell filters from Costar, in 0.25 ml of medium. The basolateral chamber contained 0.75 ml of medium. For immunoprecipitation, 5×10^5 cells were plated onto 24 mm Transwell filters, in 2 ml of medium, with 3 ml of medium in the lower chamber. Cells were used 4-7 days after plating. Tissue culture materials were from Gibco. Porcine brain endothelial cells were isolated and grown by modifications of a previously published procedure (Rubin et al., 1991). Brain capillary fragments were plated on dishes coated with rat tail collagen and human fibronectin. The cultures were fed every other day with growth medium composed of 50% astrocyte-conditioned medium and 50% Dulbecco's Modified Eagle Medium containing 10% plasma-derived serum, 125 μg/ml heparin, antibiotics and glutamine. They were incubated in a humidified atmosphere of 10% CO2 at 37° C. When the endothelial cells were approximately 50% confluent (after 4-6 days in culture), they were trypsinized and plated onto collagen-coated polycarbonate Transwell filters (6.5 mm diameter, 0.4 μm pore size, tissue culture treated, Costar Corp, Cambridge, Mass., U.S.A.) in the same medium (250 μl apically, 750 μl basolaterally). After 2-3 days on filters, the medium was switched to a 1:1 mixture of astrocyte-conditioned medium and a Dulbecco's Modified Eagle Medium-based, chemically defined medium (‘N2’, Rubin et al., 1991; Bottenstein and Sato, 1979). The final concentration of plasma-derived serum was 5%. Human umbilical vein endothelial cells were from Clonetics.
Whole cell lysates were prepared by rapidly replacing the culture medium in 6.5 mm with hot Laemmli sample buffer, followed by heating at 100° C. for 5 minutes. Immunoprecipitations were carried out at 4° C. Confluent monolayers of cells were washed rapidly with ice cold PBS (containing 0.9 mM CaCl2 and 0.5 mM MgCl2) before addition of 0.5 ml of the appropriate buffer. The filters were then gently scraped, and the lysate was removed and centrifuged at 14000× g. The supernatant was precleared with 10% (w/v) protein A-Sepharose in lysis buffer for 30-60 minutes. Appropriate primary antibodies were added to the lysate, and after 2-3 hours the immunecomplex was isolated, using rabbit anti-mouse secondary antibodies (Jackson Immunoresearch Labs Inc., West Grove, Pa.) and protein A-Sepharose.

With `CCCC(=O)O[C@@H]1[C@@H](C)[C@@]2(O)[C@@H](C=C(CO)C[C@]3(O)C(=O)C(C)=C[C@@H]23)[C@@H]2C(C)(C)[C@]12OC(=O)CCC` [PDB, Phorbol-12,13-dibutyrate] the “migration of p100 and p120” value (p100/p120 [1]) was “increased markedly” and the “mobility of p100 and p120” value (p100/p120 [2]) was “the mobility of p100 and p120 increased”.
